# Read-outs that look alike come from different tables or passages of the source.
# How the values were obtained:
# [1] = test system: Shay ulcers; experiment: Gastric ulcers provoked by tying of the pylorus (Shay ulcers); type: in vivo; details: intraduodenal; rat, 50mg/kg/i.d.; read-out: Percentage reduction of shay ulcers
# Protocol: The derivatives of formula I, administered by oral means, reduce the extent of gastric ulcers provoked in a rat by tying of the pylorus (Shay ulcers)
# Table IV indicated, by way of example, the results obtained by the administration of 50mg/kg/i.d. of different derivatives of formula I.
# [2] = test system: isolated heart of guinea-pig; experiment: Augmentation of flow of coronary vessels of isolated heart (vasodilatatory); details: Cavia porcellus, read-out: Percentage augmentation of flow of isolated heart of guinea-pig; for activation at 1 µg/mL: 1 μg/ml
# Protocol: The derivatives of formula I are capable of augmenting the flow of the coronary vessels of this isolated heart of a guinea - pig, when said derivatives are added in the perfusion liquid of said organ.
# The percentage augmentation of the flow of the isolated heart of the guinea - pig by adding different derivatives of formula I to the perfusion liquid are given by way of example in the following Table V.
# [3] = test system: bronchoconstriction provoked by acetylcholine; experiment: Bronchoconstriction provoked by intravenous acetylcholine, Konzett method; type: in vivo; details: guinea-pig, intraperitoneal injection of 100mg/kg
# Protocol: Injected by intraduodenal means, the derivatives of formula I are capable of opposing the bronchoconstriction provoked in the guinea - pig by the intraveinous injection of acetylcholine and evaluated by the Konzett method.
# By way of example, the following Table VI lists the percentage inhibition of the bronchoconstriction following the intraperitoneal injection of 100mg/kg of different derivatives of formula I.
# [4] = test system: local oedema caused by sub-plantar injection of carraghenine; experiment: Sub-plantar oedema caused by carraghenine (antiinflammatory); type: in vivo, rat; details: for inhibition in vivo at 100 mg/kg: 100 mg/kg/PO, read-out: Percentage reduction of subplantar oedema; for ED50: po
# Source text: These properties are shown by a diminution of the local oedema caused by the sub-plantar injection of a phlogogenic agent, such as carraghenine, in the rat following the oral administration of derivatives of formula I.
# [5] = Lethal doses / percentage mortality; type: in vivo; details: in vivo, mouse; for LD50: po, Table IX, read-out: DE 50 (second column; DL 50) (converted)
# Source text: (§1) As a result of a comparison between the pharmacologically active doses mentioned above, and the lethal doses listed in the following table XIV, the difference between the doses is sufficiently great to permit the utilisation of the derivatives of formula I in therapeutics.
# [6] = test system: volume of urine emitted; experiment: Augmentation of urinary elimination (diuretic properties); type: in vivo; details: po; mouse, 25mg/kg/p.o., 6 hours; read-out: Percentage augmentation of urinary elimination
# Protocol: The derivatives of formula I, administered by oral means to the mouse, simultaneously with a volume of 1ml of an isotonic solution of sodium chloride per 25g of the corporeal weight of the mouse, are capable of provoking an augmentation of the volume of urine emitted by reference to control animals, the volume being measured for 6 hours following administration.
# The following Table VII indicates, by way of example the percentage augmentation of urinary elimination resulting from the administration of 25mg/kg/p.o. of different derivatives of formula I.
# [7] = test system: painful stretchings caused by phenylbenzoquinone; experiment: Analgesic test with phenylbenzoquinone (painful stretchings); type: in vivo; details: Mus musculus, po; for ED50: read-out: 105 DE (DE 50); for inhibition in vivo at 100 mg/kg: read-out: Percentage of diminution of the number of painful stretchings
# [8] = test system: painful stretchings caused by bradykinine; experiment: Analgesic test with bradykinine (painful stretchings); type: in vivo, mouse; details: Mus musculus, po, read-out: 105 DE (DE 50)
# [9] = test system: painful stretchings caused by acetic acid; experiment: Analgesic test with acetic acid (painful stretchings); type: in vivo, mouse; details: po, read-out: 105 DE (DE 50)
# [10] = test system: analgesic action of dextromoramide in the Eddy test; experiment: Eddy test (potentialisation of dextromoramide analgesia); type: in vivo, mouse; details: for ED50: Mus musculus, po, read-out: 105 DE (DE 50)
# [11] = test system: crying and jumping in the Randall and Selitto test; experiment: Randall and Selitto test; type: in vivo, rat; details: for ED50: po, read-out: 105 DE (DE 50)
# [12] = test system: mouse; experiment: Lethal doses / percentage mortality; type: in vivo; details: Table IX
# Source text: as §1
# [13] = test system: number of explorations in the escape enclosure; experiment: Number of explorations in the escape enclosure (sedative properties); type: in vivo, mouse; details: po; mouse, escape enclosure, 100mg/kg/p.o.; read-out: Percentage diminution of number of explorations
# [14] = test system: isolated heart of the guinea-pig; experiment: Force of contractions on isolated heart (positive inotrope action); details: 1 μg/ml
# Protocol: Additionally, the derivative of Code No. 730 712 added to the conserving medium in a concentration of 1 μg/ml, permit an augmentation of 140% in the force of contractions on the isolated heart of the guinea- pig.
# [15] = test system: arterial pressure of anaesthetised rat; experiment: Lowering of arterial pressure of anaesthetised rat (hypotensive properties); type: in vivo; details: 2 mg/kg/i.v.
# Source text: Administered by intraveinous means to an anaesthetised rat, the derivatives of formula I provoke a lowering of the arterial pressure.
# By way of example, the following Table VIII mentions the results obtained by administration of different derivatives of formula I.
# [16] = test system: pain threshold in the dentary pulp stimulation test; experiment: Dentary pulp stimulation test; type: in vivo; details: rabbit
# Source text: Moreover, the derivatives of formula I, administered rectally to a rabbit, enabled the pain threshold to be raised in the dentary pulp stimulation test.
# As an example, the following table XI gives the results of a comparative study between the activity of derivative code number 730 229 and that of glaphenine, the activities being estimated by the dentary stimulation test
# [17] = antiinflammatory activity, rat, read-out: DE 50 (the source's name)
smiles,measurement,setting,value
Cc1cc(Nc2ccc(C(=O)N3CCCC3)cc2)nc(-c2ccc(Cl)cc2)n1 [72 255],inhibition in vivo at 50 mg/kg,[1],35%
same,activation at 1 µg/mL,[2],45%
same,Percentage inhibition of bronchoconstriction,[3],50%
same,inhibition in vivo at 100 mg/kg,[4]; rat,60%
same,mortality,"[5]; 2000 mg/kg, 2 000 mg/kg/PO",0%
Cc1cc(Nc2ccc(C(N)=O)cc2)nc(-c2ccc3c(c2)OCO3)n1 [730 025],inhibition in vivo at 50 mg/kg,[1],35%
same,Percentage inhibition of bronchoconstriction,[3],50%
same,change in vivo at 25 mg/kg,[6],140%
same,mortality,"[5]; 2000 mg/kg, 2 000 mg/kg/PO",0%
Cc1cc(Nc2ccccc2C(N)=O)nc(-c2ccc(Cl)cc2)n1 [72 257],inhibition in vivo at 50 mg/kg,[1],50%
same,activation at 1 µg/mL,[2],80%
same,mortality,"[5]; 2000 mg/kg, 2 000 mg/kg/PO",0%
Cc1cc(Nc2ccc(C(=O)N3CCCCC3)cc2)nc(-c2ccc(Cl)cc2)n1 [72 276],inhibition in vivo at 50 mg/kg,[1],40%
same,Percentage inhibition of bronchoconstriction,[3],50%
same,mortality,"[5]; 2000 mg/kg, 2 000 mg/kg/PO",0%
"Cc1c(N(C)C)c(=O)n(-c2ccccc2)n1C [amidopyrine, 4-dimethylamino-2,3-dimethyl-1 phenyl-3-pyrazolin-5-one, reference compound]",ED50,[7],45 mg/kg
same,ED50,[8],48 mg/kg
same,ED50,"[9]; test with acetic acid, mouse",80 mg/kg
same,ED50,[10],35 mg/kg
same,DE 50 / DL 50,[11]; Randall and Selitto test,1.10^-1
same,ED50,"[11]; Randall and Selitto test, rat",110 mg/kg
same,ED50,[4]; [17],140 mg/kg
same,LD50,[5],1050 mg/kg
same,DE 50 (second column; DL 50),[12],1 050 mg/kg/PO
COc1cc(-c2nc(C)cc(Nc3ccc(C(=O)N4CCN(c5ccccc5)CC4)cc3)n2)cc(OC)c1OC [72 450],inhibition in vivo at 100 mg/kg,[13],35%
same,activation at 1 µg/mL,[2],85%
same,mortality,"[5]; 2000 mg/kg, 2 000 mg/kg/PO",0%
Cc1cc(Nc2ccc(OCCN(C)C)cc2)nc(-c2ccc(Cl)cc2)n1 [730 225],inhibition in vivo at 50 mg/kg,[1],53%
same,ED50,[7],42 mg/kg
same,ED50,[10],80 mg/kg
same,Percentage of diminution of the number of painful stretchings,"[11]; Randall and Selitto test, 100 mg/kg/PO",50%
same,mortality,"[5]; 2000 mg/kg, 2 000 mg/kg/PO",~20%
same,LD50,[5],> 2000 mg/kg
Cc1cc(Nc2ccc(C(=O)N3CCN(c4ccccc4)CC3)cc2)nc(-c2ccc(Cl)cc2)n1 [72 260],inhibition in vivo at 50 mg/kg,[1],35%
same,activation at 1 µg/mL,[2],70%
same,mortality,"[5]; 2000 mg/kg, 2 000 mg/kg/PO",0%
Cc1cc(Nc2ccccc2C(N)=O)nc(-c2cccc(C(F)(F)F)c2)n1 [72 419],change in vivo at 25 mg/kg,[6],80%
same,positive inotrope action,[14],positive inotrope action
same,inhibition in vivo at 100 mg/kg,[4]; rat,50%
same,mortality,"[5]; 2000 mg/kg, 2 000 mg/kg/PO",0%
Cc1cc(Nc2ccc(OCCN(C)C)cc2)nc(-c2cccc(Cl)c2)n1 [730 262],ED50,[7],52 mg/kg
same,ED50,[8],100 mg/kg
same,ED50,[10],60 mg/kg
same,mortality,[5]; 2 2500 mg/kg/PO,~50%
same,LD50,[5],2500 mg/kg
same,DE 50 (second column; DL 50),[12],2 500 mg/kg/PO
"Cc1cc(Nc2ccccc2C(=O)OCC(O)CO)nc(-c2cccc(C(F)(F)F)c2)n1 (stereo not drawn) [72 502, 2 - (3' - trifluoromethylphenyl)-4-[ortho (β, γ-dihydroxy propoxycarbonyl)phenylamino] -6-methyl pyrimidine]",inhibition in vivo at 50 mg/kg,[1],35%
same,Percentage inhibition of bronchoconstriction,[3],50%
same,mortality,"[5]; 2000 mg/kg, 2 000 mg/kg/PO",0%
Cc1cc(Nc2ccccc2C(=O)OCC(O)CO)nc(-c2cccc(F)c2)n1 (stereo not drawn) [72 826],Percentage inhibition of bronchoconstriction,[3],100%
same,change in vivo at 25 mg/kg,[6],80%
same,inhibition in vivo at 100 mg/kg,[4]; rat,60%
same,mortality,"[5]; 2000 mg/kg, 2 000 mg/kg/PO",0%
Cc1cc(Nc2ccc(OCCN3CCCCCC3)cc2)nc(-c2cccc(Cl)c2)n1 [730 283],inhibition in vivo at 50 mg/kg,[1],45%
same,activation at 0.1 µg/mL,[2]; 0.1 μg/ml,61%
same,inhibition in vivo at 100 mg/kg,[7],57%
same,mortality,"[5]; 1000 mg/kg, 1 000 mg/kg/PO",~50%
"CC(=O)Oc1ccccc1C(=O)O [acetylsalicylic acid, reference compound]",ED50,[7],72 mg/kg
same,ED50,[8],180 mg/kg
same,ED50,[9]; Mus musculus,115 mg/kg
same,effect in Eddy test (40 % with 200),[10]; 200 mg/kg/PO,40%
same,ED50,[10],> 200 mg/kg
same,ED50,[11]; Rattus norvegicus,110 mg/kg
same,ED50,"[4]; Rattus norvegicus, read-out: DE 50",40 mg/kg
same,LD50,[5],700 mg/kg
Cc1cc(Nc2ccc(C(N)=O)cc2)nc(-c2ccc(Cl)cc2)n1 [72 311],inhibition in vivo at 50 mg/kg,[1],40%
same,Percentage inhibition of bronchoconstriction,[3],80%
same,inhibition in vivo at 100 mg/kg,[4]; rat,50%
same,mortality,"[5]; 2000 mg/kg, 2 000 mg/kg/PO",0%
CCOC(=O)c1ccc(Nc2cc(C)nc(-c3cccc(C(F)(F)F)c3)n2)cc1 [72 505],activation at 1 µg/mL,[2],50%
same,mortality,"[5]; 2000 mg/kg, 2 000 mg/kg/PO",0%
CCOC(=O)c1ccc(Nc2cc(C)nc(-c3ccc4c(c3)OCO4)n2)cc1 [72 613],inhibition in vivo at 50 mg/kg,[1],70%
same,activation at 1 µg/mL,[2],85%
same,mortality,"[5]; 2000 mg/kg, 2 000 mg/kg/PO",0%
Cc1cc(Nc2ccc(OCCN(C)C)cc2)nc(-c2cccc(C(F)(F)F)c2)n1 [730 241],activation at 0.5 µg/mL,[2]; 0.5 μg/ml,77%
same,Percentage reduction of arterial pressure of anaesthetised rat,[15],24%
same,Duration of effect,[15]; hypotensive effect,30 mn
same,inhibition in vivo at 100 mg/kg,[7],67%
same,mortality,"[5]; 2000 mg/kg, 2 000 mg/kg/PO",0%
"O=C(OCC(O)CO)c1ccccc1Nc1ccnc2cc(Cl)ccc12 (stereo not drawn) [glaphenine, N-(7-chloro-4-quinolyl) anthranilic acid 2,3-dihydroxypropylester]",ED50,[7],60 mg/kg
same,ED50,[8],48 mg/kg
same,ED50,"[9]; test with acetic acid, mouse",80 mg/kg
same,ED50,"[11]; Randall and Selitto test, rat",65 mg/kg
same,Duration of action,[16]; 50 mg/kg rectally,1 h
same,"Number of rabbits whose pain threshold is increased by 0,5 V",[16]; 50 mg/kg rectally,4/10
same,Duration of action,[16]; 100 mg/kg rectally,"1,5 hours"
same,"Number of rabbits whose pain threshold is increased by 0,5 V",[16]; 100 mg/kg rectally,6/10
same,Peak action,[16]; 100 mg/kg rectally,45 mn
same,Duration of action,[16]; 200 mg/kg rectally,2 h
same,"Number of rabbits whose pain threshold is increased by 0,5 V",[16]; 200 mg/kg rectally,8/10
same,ED50,[4]; [17],9 mg/kg
same,LD50,[5],1900 mg/kg
same,DE 50 (second column; DL 50),[12],1 900 mg/kg/PO
